According to patent US7795311B2, “Methods and compositions for the management of soil-borne fungal diseases” (Pittsburg State University, priority 2007, dated 2010):
Values joined by “and” are separate entries in the source; they are usually repeats but may differ in a detail not shown here. Identical values can stand only once.

Experiments:
[1] = tested on: soil-borne fungal diseases; assay: 1999 and 2000 foliar treatment field trial: viability and mortality data; type: in vivo, soybean; details: 1999 foliar treatment
Description: (§1) Foliar treatments were prepared on site. R1 and R4 Foliar Carbenoxolone 1000μ/mL treatments were prepared by adding 3.785 g Carbenoxolone to 1 gallon of water and mixed until dissolved. The mixture was then sprayed directly onto foliage using specialized CO2 pressurized aerosol spray equipment set at a spray rate of 1 gallon/100 ft for four (4), twenty-five (25) foot rows and two (2) rows wide.
FIGS. 1 and 3 depict the 1999 and 2000 Foliar Treatment Viability and Mortality Data. In 1999, the Carbenoxolone concentration was varied between 125 and 1000 μg/ml diluted in one gallon of water. The treatment composition was applied to the canopy of plants at various developmental stages (V-2, R-1 and R-6). The foliar application was accomplished using the pressurized boom-spray unit attached to a tractor at reproductive stage V-2 or R-1, or by a backpack spray unit at reproductive stage R-6. The mortality and viability data were collected at developmental stage R-8, usually around week eleven (11) or twelve (12) in the plant's lifecycle. Also shown in FIGS. 1 and 3, the percent mortalities were calculated based on the number of plants that died at twelve (12) weeks of growth as compared to the total number of seeds planted per treatment. The viability percentages as shown in FIGS. 1 and 3 were calculated from the total number of seeds planted per treatment, as compared to the viability data taken at three (3) weeks of growth. The seed germination rate was greater than 99% and was determined prior to planting. […] This appears unchanged from the untreated control, which had similar percentages. […] The Carbenoxolone treatment solution having 125 μg/ml has a mortality percentage of approximately 10.4% compared to a mortality percentage of an uncontrolled of 20%.
The […] foliar treatment using Cabenoxolone also had similar results as in 1999. The mortality percentage of plants treated with a Carbenoxolone solution decreased when compared to an untreated control.

[2] = tested on: soil-borne fungal diseases; assay: 1999/2000 foliar application: mean disease rating and percent mortality; type: in vivo, soybean; details: dead plants / germinated plants, week 11
Description: Beginning at developmental stage V1, a visual disease rating was employed to determine the overall visual health of the plant based on foliar, pod and stem disease. The foliar disease rating system was based from the Soybean Diseases Atlas by the Southern Soybean Disease Workers (W. J. Walla, ed. 1979, Texas A&M University). A 1-5 rating system was utilized, wherein 1=0%, 2=25%, 3=50%, 4=75%, 5=100% based on leaf area affected by disease symptoms.
FIG. 2 illustrates the 1999 Mean Disease Rating for Each Foliar Application, Percent Mortality and the Statistical Significance as Measured by the Student-Newman-Keuls (“SNK”) Analysis. The disease ratings as shown in FIGS. 2 and 4 are an objective number rating assigned as a percentage of a plot infected having a rating scale of 1=0%, 2=25%, 3=50%, 4=75% and 5=100%. The SNK data comprising letters which are different are statistically significant from other letter assigned data sets, which allows the single year data to show how weather influences the outcome of the treatment. […] The mortality count was taken at week eleven (11) in the 1999 and 2000 growing seasons. As previously stated, the SNK statistical analysis illustrate the statistical significance of the data, wherein means with the same letter are not statistically different. […] Even lower, 1000 μg/ml of Carbenoxolone solution a mortality rate of 22%.

[3] = tested on: Pythium, Phytophthora, Phomopsis and Rhizoctonia fungal pathogens; assay: Field trial 2003-2005: soybean pre-emergence mortality by seed/foliar treatment; type: in vivo; parameters: pre-emergence mortality, average non-emergent seeds: concentration or dose not given beside the values
Description: (§2) Test plots were organized into randomized block design consisting of fifteen (15) total treatments. Treatments included either a control group, a seed treatment, foliar treatment, or a combination seed and foliar treatment. Each treatment consisted of four (4), twenty-five (25) foot rows in each test plot. The fifteen (15) treatment blocks were planted in quadruplicate for a total of sixty (60) test plots. The test plots were labeled with numerical identification markers which represent the treatment, plot, and replication number. No samples were taken from the two (2) interior rows of each plot so that they could be used for counting plant mortality and harvested for seed yields. The two (2) outside rows were used to sample plants.
(§3) Seeds were treated with stock solutions of the following treatments. Carbenoxolone disodium salt 0, 125, 250, 500 and 1000 μg/L High Grade was utilized for management of Pythium, Phytophthora, Phomopsis and Rhizoctonia fungal pathogens. Gustafson's Magnacoat® (Gustafson, LLC, Plans, Tex.) was used as a seed-coating polymer in conjunction with the other treatment and as a control treatment. For example, stock solutions were prepared in 500 mL beakers as follows: […] High Grade was prepared by adding 0.105 g of 99% pure Carbenoxolone to 65 mL deionized water and mixing using a spatula until completely dissolved, then adding 35 mL Magnacoat® and 5 mL green Pro-lzed® colorant and mixing until homogenous for a total of 105 mL.
(§4) Seeds for each row were treated separately with compounds. A 2.1 mL sample was taken from the stock solution via pipette and placed in a 200 mL glass beaker. A single row seed sample was added to the beaker and the seeds were mixed with a glass stir rod until the seeds were completely covered. The samples were then spread onto a wax sheet and allowed to dry for one (1) to two (2) hours. Each treated seed sample was placed in a labeled twenty pound (20 lb), 4×6 inch manila coin envelope.
as §1
(§5) Germination data was taken at V1 by counting the emergent plants in the two (2) inner yield rows. Plant counts were used to compare with number of seeds planted to determine pre-emergence mortality due to soil-borne early season disease pressure. At the end of the growing season at developmental stage […] when plants were mature, but before full senescence, dead plants were counted. Plant counts were used to determine mortality data for the season caused by overall disease pressure.
In the yield rows, two-hundred and forty (240) seeds were planted per row in the yield rows at the beginning of the growing season, flanked by two (2) rows (two-hundred and forty (240) seeds in each row) for plant sampling. Rows were end trimmed to final twenty-five (25) foot rows with two-hundred (200) seed per row and eight (8) seeds per foot. Mortality data was determined only from the interior yield rows. An average of these pre-emergence mortality totals, (four-hundred (400) seeds in two (2) rows) for all four (4) repetitions was taken to represent pre-emergence mortality. Pre-emergence mortality averages for each treatment with calculated standard deviations are compared in FIG. 5. Pre-emergence mortality indicates the number of plants that died before emergence. Treatments were either untreated control seed or seeds treated with the polymer in combination with Carbenoxolone. Foliar treatments indicate that the same compound used as a seed treatment was then applied as a foliar spray at a set plant development stage (R1 or R4). […]

[4] = tested on: Pythium, Phytophthora, Phomopsis and Rhizoctonia fungal pathogens; assay: Field trial 2003-2005: soybean post-emergence mortality by seed/foliar treatment; type: in vivo; parameters: concentration or dose not given beside the values
Description: as §2, §3, §4, §1, §5
Post-emergence mortality was obtained by totaling the number of dead plants at the end of the growing season as compared to the number of plants that successfully emerged. Plant mortality counts were taken at developmental stage R8, within the two (2) yield rows and an average of these mortality totals was obtained for all four (4) repetitions. Post-emergence mortality averages and standard deviations for all four (4) repetitions and treatments over three (3) years of testing are compared in FIG. 6. Post-emergence mortality indicates the number of plants that died within the growing season after emergence. Similar to FIG. 5, treatments were either untreated control seed or seeds treated with the polymer in combination with Carbenoxolone. Foliar treatments indicate that the same compound used as a seed treatment was then applied as a foliar spray at a set plant development stage (R1 or R4). The percentage is based on the average of V1 emerged viable seedlings counted compared to the R8 viable plants counted.

[5] = tested on: Pythium, Phytophthora, Phomopsis and Rhizoctonia fungal pathogens; assay: Field trial 2003-2005: soybean viability at R8 by seed/foliar treatment; type: in vivo; parameters: viability average: concentration or dose not given beside the values
Description: as §2, §3, §4, §1
The viability data was obtained by totaling the number of healthy plants within the two (2) yield rows at the end of the growing season when plants reached developmental stage R8 and these totals were averaged and standard deviations calculated for all four (4) repetitions per treatment. […] Viability averages of all treatment repetitions for a growing year, for three (3) years of field-testing are compared in FIG. 7. Viability indicates the number of healthy plants at the end of the growing season. Similar to FIGS. 5 and 6, treatments were either untreated control seed or seeds treated with the polymer in combination with Carbenoxolone. Foliar treatments indicate that the same compound used as a seed treatment was then applied as a foliar spray at a set plant development stage (R1 or R4). Percentage is based on the average number of viable plants counted at R8.

[6] = Field trial 2003-2005: seed yield; type: in vivo, soybean
Description: At the end of the growing seasons, marked by plant senescence, the two (2) interior yield rows were harvested using a Massey-Ferguson two-row experimental test, combined with an onboard computer processor for determining seed weight, seed moisture and collection of samples. Yield data included seed moisture and seed weight, which were used to determine the overall yield for each test plot.
Yield data was obtained from the two (2) yield rows of twenty-five (25) feet using a conversion equation which utilized the fraction of acreage predetermined test weight and adjusted moisture of the seeds harvested. Yield values represent bushels per acre adjusted for moisture and test weight. […] Multiple comparisons were tested at α=0.1. Again as with previous Figures, treatments were either untreated control seed or seeds treated with a seed coating polymer in combination with Carbenoxolone. Foliar treatments indicate that the same compound used as a seed treatment was then applied as a foliar spray at a set plant development stage (R1 or R4).

[7] = seed combined with R1 foliar, 2003
[8] = seed combined with R1 foliar, 2004
[9] = seed combined with R1 foliar, 2005
[10] = seed combined with R4 foliar, 2003
[11] = seed combined with R4 foliar, 2004
[12] = seed combined with R4 foliar, 2005
[13] = seed treatment (with polymer), 2003
[14] = seed treatment (with polymer), 2004
[15] = seed treatment (with polymer), 2005
[16] = seed treatment combined with R1 foliar, three years of testing

## CC1(C)[C@@H](OC(=O)CCC(=O)O)CC[C@]2(C)[C@H]3C(=O)C=C4[C@@H]5C[C@@](C)(C(=O)O)CC[C@]5(C)CC[C@@]4(C)[C@]3(C)CC[C@@H]12 [Carbenoxolone, 3β-hydroxy-11-oxoolean-12-en-30-oic acid 3-hemisuccinate disodium]
[1]; 125 μg/ml
  increase of viability percentage from the untreated control: approximately 10%
  mortality percentage: approximately 10.4%
[1]; 1000 μg/ml, plants dead at 12 weeks vs seeds planted
  mortality rate: approximately 20%
[1]; 1000 μg/ml, viability at 3 weeks vs seeds planted
  viability rate: approximately 80%
[2]; foliar 500 μg/ml
  mortality rate: 26%
[2]; foliar 1000 μg/ml
  mortality rate: 22%
[3]; R1 foliar only (untreated seed), 2003
  pre-emergence mortality, average non-emergent seeds: 27.50%
[3]; R1 foliar only (untreated seed), 2004
  pre-emergence mortality, average non-emergent seeds: 41.25%
[3]; R1 foliar only (untreated seed), 2005
  pre-emergence mortality, average non-emergent seeds: 27.08%
[3]; R4 foliar only (untreated seed), 2003
  pre-emergence mortality, average non-emergent seeds: 35.41%
[3]; R4 foliar only (untreated seed), 2004
  pre-emergence mortality, average non-emergent seeds: 43.75%
[3]; R4 foliar only (untreated seed), 2005
  pre-emergence mortality, average non-emergent seeds: 27.91%
[3]; [7]
  pre-emergence mortality, average non-emergent seeds: 30.0%
[3]; [8]
  pre-emergence mortality, average non-emergent seeds: 41.24%
[3]; [9]
  pre-emergence mortality, average non-emergent seeds: 30.0%
[3]; [10]
  pre-emergence mortality, average non-emergent seeds: 36.66%
[3]; [11]
  pre-emergence mortality, average non-emergent seeds: 42.5%
[3]; [12]
  pre-emergence mortality, average non-emergent seeds: 28.75%
[3]; [13]
  pre-emergence mortality, average non-emergent seeds: 26.25% and 26%
[3]; seed treatment (with polymer), 2003 vs 2004
  average germination higher in 2003 compared to 2004: 17%
[3]; [14]
  pre-emergence mortality, average non-emergent seeds: 43.33% and 43%
[3]; [15]
  pre-emergence mortality, average non-emergent seeds: 29.16% and 29%
[4]; R1 foliar only, 2003
  post-emergence mortality average: 5.0%
[4]; R1 foliar only, 2004
  post-emergence mortality average: 1.6%
[4]; R1 foliar only, 2005
  post-emergence mortality average: 3.33%
[4]; R4 foliar only, 2003
  post-emergence mortality average: 6.25%
[4]; R4 foliar only, 2004
  post-emergence mortality average: 1.6%
[4]; R4 foliar only, 2005
  post-emergence mortality average: 3.33%
[4]; [7]
  post-emergence mortality average: 5.41% and 5%
[4]; [9]
  post-emergence mortality average: 3.33%
[4]; [11]
  post-emergence mortality average: 2.08%
[4]; [12]
  post-emergence mortality average: 2.5% and 2%
[4]; [13]
  post-emergence mortality average: 5.0%
[4]; [14]
  post-emergence mortality average: 2.08%
[4]; [15]
  post-emergence mortality average: 2.5%
[5]; R1 foliar only, 2003
  viability average: 77.08%
[5]; R1 foliar only, 2004
  viability average: 63.33%
[5]; R1 foliar only, 2005
  viability average: 77.5%
[5]; R4 foliar only, 2003
  viability average: 69.16%
[5]; R4 foliar only, 2004
  viability average: 60.83%
[5]; R4 foliar only, 2005
  viability average: 76.66%
[5]; seed combined with R1 foliar
  Dunnett's t Test analysis of viability data compared to the untreated control: statistically significant difference
[5]; [7]
  viability average: 74.58%
[5]; [8]
  viability average: 63.75%
[5]; [9]
  viability average: 74.58%
[5]; [10]
  viability average: 69.58%
[5]; [11]
  viability average: 62.08%
[5]; [12]
  viability average: 75.83%
[5]; seed treatment (with polymer), 2003, plants at R8
  viability average: 78.39%
[5]; seed treatment (with polymer), 2004, plants at R8
  viability average: 61.66%
[5]; seed treatment (with polymer), 2005, plants at R8
  viability average: 75.41%
[6]; 2003-2005, not statistically significant
  improvement of the average yield: approximately 1.5 bushels/acre
[6]; [16]
  increase of yield: 1.5 bushels per acre
  increase of yield compared to other treatments: 6.9%
